The results in this text go back to patent US8940739B2, “Compound of a reverse-turn mimetic and a production method and use therefor” (JW Pharmaceutical Corporation, priority 2010, dated 2015).

A word on the GI50: it is the concentration giving 50% growth inhibition. Lower therefore signals greater sensitivity of the cells.

The experiment has as its system MV-4-11 (human, Acute Myeloid Leukemia cell line) cells. Put plainly: Cell growth inhibition assay, GI50 of MV-4-11. As to conditions: Homo sapiens, MV4-11, 72 h, MV-4-11 cells. The experiment is classed as cell-based. As to the method:
The anti-proliferative activity (cell growth inhibition assay) of the compounds according to the present invention against AML (Acute Myeloid Leukemia) cancer cells was measured. […] The lower the GI50 value, the higher the anti-proliferative activity.
A cell growth Inhibition assay was performed to investigate the rate of inhibition of cell proliferation by the compounds of the present invention. MV-4-11 (human, Acute Myeloid Leukemia cell line) cells were cultured in Iscove's modified Dulbecco's medium (IMDM) including 10% fetal bovine serum (FBS), 1× penicillin/streptomycin (10,000 units/ml Penicillin, […] Streptomycin in 0.85% NaCl). MV-4-11 cells were harvested with the IMDM and 5×10^4 cells/well were transferred to each well of 96-well culture plates (Nunc, #167008).
The compounds of Examples 1 to 5 were exposed to serial dilution and duplicated for each concentration. For the serial dilution, the compounds of the present invention were repeatedly diluted with the same volume of media onto 96-well assay block (costar, #3956). After the dilution, each compound was added to each well.
Also, the background absorbance was measured during the treatment with the test compounds by replacing the test compound with IMDM in the negative control plate. The plates were incubated for three days (72 hours) at 37 in the humidified incubator containing 5% CO2. On the last day, 20 µl of a CellTiter 96 Aqueous One Solution (Promega #G3581) was added to the culture in each well and the plates were incubated for a few hours at 37 in the humidified incubator containing 5% CO2. After the incubation, the absorbance of each cell was measured at 490 nm using an EnVision (Perkinelmer, USA).
The GI50 values were calculated using a Prism 3.0 program.

In turn, `C=CCN1CC(=O)N2[C@@H](Cc3ccc(O)cc3)C(=O)N(Cc3cccc4c(-c5cccc(C(=O)N6CCOCC6)c5)cn(C)c34)C[C@@H]2N1C(=O)NCc1ccccc1` [Compound D-1] had a GI50 of 1.8 nM.

`C=CCN1CC(=O)N2[C@@H](Cc3ccc(O)cc3)C(=O)N(Cc3cccc4c(-c5cccc(C(=O)N6CCN(C)CC6)c5)cn(C)c34)C[C@@H]2N1C(=O)NCc1ccccc1` [Compound D-2] came in with a GI50 of 1.3 nM. This GI50 and that of the compound before are within 1.5-fold of each other.

Take `C=CCN1CC(=O)N2[C@@H](Cc3ccc(O)cc3)C(=O)N(Cc3cccc4c(-c5ccc(C(=O)N6CCN(C)CC6)cc5)cn(C)c34)C[C@@H]2N1C(=O)NCc1ccccc1` [Compound D-3]: halving of growth (GI50) required 0.1 nM.

As for `C=CCN1CC(=O)N2[C@@H](Cc3ccc(O)cc3)C(=O)N(Cc3cccc4c(-c5ccc(C(=O)N6CCCCC6)cc5)cn(C)c34)C[C@@H]2N1C(=O)NCc1ccccc1` [Compound D-4], the GI50 turned out to be 1.4 nM.

Compound `C=CCN1CC(=O)N2[C@@H](Cc3ccc(O)cc3)C(=O)N(Cc3cccc4c(-c5cccc(C(=O)N6CCC(O)CC6)c5)cn(C)c34)C[C@@H]2N1C(=O)NCc1ccccc1` [Compound D-6] registered a 50% growth inhibitory concentration (GI50) of 1.7 nM. This GI50 and that of the compound before are within 1.5-fold of each other.

Compound `C=CCN1CC(=O)N2[C@@H](Cc3ccc(O)cc3)C(=O)N(Cc3cccc4c(-c5ccc(C(N)=O)cc5)cn(C)c34)C[C@@H]2N1C(=O)NCc1ccccc1` [Compound D-7] yielded a GI50 of 1.2 nM.

In turn, `C=CCN1CC(=O)N2[C@@H](Cc3ccc(O)cc3)C(=O)N(Cc3cccc4c(-c5ccc(C(=O)NC)cc5)cn(C)c34)C[C@@H]2N1C(=O)NCc1ccccc1` [Compound D-8] registered a GI50 of 1.2 nM.

Compound `C=CCN1CC(=O)N2[C@@H](Cc3ccc(O)cc3)C(=O)N(Cc3cccc4c(-c5cccc(C(=O)NC6CCCCC6)c5)cn(C)c34)C[C@@H]2N1C(=O)NCc1ccccc1` [Compound D-9] displayed a GI50 of 3.3 nM.

For the compound `C=CCN1CC(=O)N2[C@@H](Cc3ccc(O)cc3)C(=O)N(Cc3cccc4c(-c5ccc(C(=O)Nc6ccc(N7CCNCC7)cc6)cc5)cn(C)c34)C[C@@H]2N1C(=O)NCc1ccccc1` [Compound D-13], it took 1.2 nM to inhibit growth by half (GI50).

As for `C=CCN1CC(=O)N2[C@@H](Cc3ccc(O)cc3)C(=O)N(Cc3cccc4c(-c5ccc(C(=O)Nc6ccc(CN)cc6)cc5)cn(C)c34)C[C@@H]2N1C(=O)NCc1ccccc1` [Compound D-19], the GI50 stood at 2 nM.

On to `C=CCN1CC(=O)N2[C@@H](Cc3ccc(O)cc3)C(=O)N(Cc3cccc4c(-c5ccc(C(=O)NCc6ccccc6)cc5)cn(C)c34)C[C@@H]2N1C(=O)NCc1ccccc1` [Compound D-27], for which the GI50 was found to be 4.3 nM. This GI50 lies about 2.1-fold higher than the previous one.

Consider `C=CCN1CC(=O)N2[C@@H](Cc3ccc(O)cc3)C(=O)N(Cc3cccc4c(-c5cccc(C(=O)NCc6ccccc6)c5)cn(C)c34)C[C@@H]2N1C(=O)NCc1ccccc1` [Compound D-28], for which the GI50 worked out at 5.5 nM.

`C=CCN1CC(=O)N2[C@@H](Cc3ccc(O)cc3)C(=O)N(Cc3cccc4c(-c5cccc(C(=O)NC6CC6)c5)cn(C)c34)C[C@@H]2N1C(=O)NCc1ccccc1` [Compound D-29] yielded a GI50 of 1.3 nM.

`C=CCN1CC(=O)N2[C@@H](Cc3ccc(O)cc3)C(=O)N(Cc3cccc4c(-c5ccc(C(=O)NC6CCC(N)CC6)cc5)cn(C)c34)C[C@@H]2N1C(=O)NCc1ccccc1` (stereo partly drawn) [Compound D-30] showed a GI50 of 1.5 nM. The GI50 values of the last two compounds are within 1.5-fold of each other.

Compound `C=CCN1CC(=O)N2[C@@H](Cc3ccc(O)cc3)C(=O)N(Cc3cccc4c(-c5ccc(C(=O)NN6C(C)CNCC6C)cc5)cn(C)c34)C[C@@H]2N1C(=O)NCc1ccccc1` (stereo partly drawn) [Compound D-32] returned a GI50 of 1.3 nM.

For `C=CCN1CC(=O)N2[C@@H](Cc3ccc(O)cc3)C(=O)N(Cc3cccc4c(-c5ccc(C(=O)NNC)cc5)cn(C)c34)C[C@@H]2N1C(=O)NCc1ccccc1` [Compound D-33], the GI50 is 1.4 nM.

Consider `C=CCN1CC(=O)N2[C@@H](Cc3ccc(O)cc3)C(=O)N(Cc3cccc4c(-c5ccc(C(=O)NNC(C)C)cc5)cn(C)c34)C[C@@H]2N1C(=O)NCc1ccccc1` [Compound D-35], for which halving of growth (GI50) required 15 nM. Against the preceding compound, the GI50 is about 11-fold higher.

`C=CCN1CC(=O)N2[C@@H](Cc3ccc(O)cc3)C(=O)N(Cc3cccc4c(-c5ccc(C(=O)NN(C)C)cc5)cn(C)c34)C[C@@H]2N1C(=O)NCc1ccccc1` [Compound D-36] displayed a GI50 of 1.2 nM.

Consider `C=CCN1CC(=O)N2[C@@H](Cc3ccc(O)cc3)C(=O)N(Cc3cccc4c(-c5ccc(C(=O)NNCC(F)(F)F)cc5)cn(C)c34)C[C@@H]2N1C(=O)NCc1ccccc1` [Compound D-37], for which halving of growth (GI50) required 1.3 nM.

The compound `C=CCN1CC(=O)N2[C@@H](Cc3ccc(O)cc3)C(=O)N(Cc3cccc4c(-c5ccc(C(=O)NNCc6ccccc6)cc5)cn(C)c34)C[C@@H]2N1C(=O)NCc1ccccc1` [Compound D-38] displayed a GI50 of 3.2 nM.

`C=CCN1CC(=O)N2[C@@H](Cc3ccc(O)cc3)C(=O)N(Cc3cccc4c(-c5ccc(C(=O)NCCN(C)C)cc5)cn(C)c34)C[C@@H]2N1C(=O)NCc1ccccc1` [Compound D-39] yielded a 50% growth inhibitory concentration (GI50) of 1.2 nM.

The compound `C=CCN1CC(=O)N2[C@@H](Cc3ccc(O)cc3)C(=O)N(Cc3cccc4c(-c5ccc(C(=O)N(C)CCN(C)C)cc5)cn(C)c34)C[C@@H]2N1C(=O)NCc1ccccc1` [Compound D-40] gave a 50% growth inhibitory concentration (GI50) of 1.2 nM.

Compound `C=CCN1CC(=O)N2[C@@H](Cc3ccc(O)cc3)C(=O)N(Cc3cccc4c(-c5ccc(C(=O)N(N)C(C)C)cc5)cn(C)c34)C[C@@H]2N1C(=O)NCc1ccccc1` [Compound D-42] showed a GI50 of 1.8 nM.

`C=CCN1CC(=O)N2[C@@H](Cc3ccc(O)cc3)C(=O)N(Cc3cccc4c(-c5ccc(C(=O)NN6CCOCC6)cc5)cn(C)c34)C[C@@H]2N1C(=O)NCc1ccccc1` [Compound D-43]: the GI50 came to 1.2 nM.

In turn, `C=CCN1CC(=O)N2[C@@H](Cc3ccc(O)cc3)C(=O)N(Cc3cccc4c(-c5ccc(C(=O)NOC(C)(C)C)cc5)cn(C)c34)C[C@@H]2N1C(=O)NCc1ccccc1` [Compound D-46] came in with a GI50 of 3.4 nM.

`C=CCN1CC(=O)N2[C@@H](Cc3ccc(O)cc3)C(=O)N(Cc3cccc4c(-c5ccc(C(=O)N(C)OC)cc5)cn(C)c34)C[C@@H]2N1C(=O)NCc1ccccc1` [Compound D-47] yielded a GI50 of 1.3 nM.

As to `C=CCN1CC(=O)N2[C@@H](Cc3ccc(O)cc3)C(=O)N(Cc3cccc4c(-c5ccc(NC(=O)c6ccc(CN)cc6)cc5)cn(C)c34)C[C@@H]2N1C(=O)NCc1ccccc1` [Compound D-53], the GI50 was 1.2 nM.

In turn, `C=CCN1CC(=O)N2[C@@H](Cc3ccc(O)cc3)C(=O)N(Cc3cccc4c(-c5ccc(NC(=O)c6ccc(CN(C)C)cc6)cc5)cn(C)c34)C[C@@H]2N1C(=O)NCc1ccccc1` [Compound D-54] gave a GI50 of 1.2 nM.

In turn, `C=CCN1CC(=O)N2C(CN(Cc3cccc4c(-c5ccc(NC(=O)C6CCN(C)CC6)cc5)cn(C)c34)C(=O)[C@@H]2Cc2ccc(O)cc2)N1C(=O)NCc1ccccc1` (stereo partly drawn) [Compound D-60] gave a GI50 of 1.1 nM.

As to `C=CCN1CC(=O)N2[C@@H](Cc3ccc(O)cc3)C(=O)N(Cc3cccc4c(-c5ccc(NC(=O)C6CCN(C(C)=O)CC6)cc5)cn(C)c34)C[C@@H]2N1C(=O)NCc1ccccc1` [Compound D-61], the GI50 is 1.3 nM.

For the compound `C=CCN1CC(=O)N2[C@@H](Cc3ccc(O)cc3)C(=O)N(Cc3cccc4c(-c5ccc(NC(=O)C6CCN(C)CC6)cc5)cn(C)c34)C[C@@H]2N1C(=O)NCc1ccccc1` [Compound D-62], growth was halved (GI50) at 1.3 nM.

As for `C=CCN1CC(=O)N2[C@@H](Cc3ccc(O)cc3)C(=O)N(Cc3cccc4c(-c5ccc(NC(=O)C6CCCN(C)C6)cc5)cn(C)c34)C[C@@H]2N1C(=O)NCc1ccccc1` (stereo partly drawn) [Compound D-63], halving of growth (GI50) required 1.3 nM.
